# Measurements reported in ChEMBL document CHEMBL4002591 (J Med Chem, 2017).
# Assays:
# [1] = molecular target: Poly [ADP-ribose] polymerase 1 (Homo sapiens, UniProt P09874); assay: Inhibition of PARP1 (unknown origin)
# [2] = molecular target: T1, Poly [ADP-ribose] polymerase tankyrase-1 (Homo sapiens, UniProt O95271); assay: Inhibition of recombinant human N-terminal GST-tagged TNKS1 (1001 to 1327 residues) expressed in baculovirus infected sf9 cells using TACS-Sapphire as substrate measured after 30 mins by colorimetric assay
# T1 sequence (O95271 whole entry): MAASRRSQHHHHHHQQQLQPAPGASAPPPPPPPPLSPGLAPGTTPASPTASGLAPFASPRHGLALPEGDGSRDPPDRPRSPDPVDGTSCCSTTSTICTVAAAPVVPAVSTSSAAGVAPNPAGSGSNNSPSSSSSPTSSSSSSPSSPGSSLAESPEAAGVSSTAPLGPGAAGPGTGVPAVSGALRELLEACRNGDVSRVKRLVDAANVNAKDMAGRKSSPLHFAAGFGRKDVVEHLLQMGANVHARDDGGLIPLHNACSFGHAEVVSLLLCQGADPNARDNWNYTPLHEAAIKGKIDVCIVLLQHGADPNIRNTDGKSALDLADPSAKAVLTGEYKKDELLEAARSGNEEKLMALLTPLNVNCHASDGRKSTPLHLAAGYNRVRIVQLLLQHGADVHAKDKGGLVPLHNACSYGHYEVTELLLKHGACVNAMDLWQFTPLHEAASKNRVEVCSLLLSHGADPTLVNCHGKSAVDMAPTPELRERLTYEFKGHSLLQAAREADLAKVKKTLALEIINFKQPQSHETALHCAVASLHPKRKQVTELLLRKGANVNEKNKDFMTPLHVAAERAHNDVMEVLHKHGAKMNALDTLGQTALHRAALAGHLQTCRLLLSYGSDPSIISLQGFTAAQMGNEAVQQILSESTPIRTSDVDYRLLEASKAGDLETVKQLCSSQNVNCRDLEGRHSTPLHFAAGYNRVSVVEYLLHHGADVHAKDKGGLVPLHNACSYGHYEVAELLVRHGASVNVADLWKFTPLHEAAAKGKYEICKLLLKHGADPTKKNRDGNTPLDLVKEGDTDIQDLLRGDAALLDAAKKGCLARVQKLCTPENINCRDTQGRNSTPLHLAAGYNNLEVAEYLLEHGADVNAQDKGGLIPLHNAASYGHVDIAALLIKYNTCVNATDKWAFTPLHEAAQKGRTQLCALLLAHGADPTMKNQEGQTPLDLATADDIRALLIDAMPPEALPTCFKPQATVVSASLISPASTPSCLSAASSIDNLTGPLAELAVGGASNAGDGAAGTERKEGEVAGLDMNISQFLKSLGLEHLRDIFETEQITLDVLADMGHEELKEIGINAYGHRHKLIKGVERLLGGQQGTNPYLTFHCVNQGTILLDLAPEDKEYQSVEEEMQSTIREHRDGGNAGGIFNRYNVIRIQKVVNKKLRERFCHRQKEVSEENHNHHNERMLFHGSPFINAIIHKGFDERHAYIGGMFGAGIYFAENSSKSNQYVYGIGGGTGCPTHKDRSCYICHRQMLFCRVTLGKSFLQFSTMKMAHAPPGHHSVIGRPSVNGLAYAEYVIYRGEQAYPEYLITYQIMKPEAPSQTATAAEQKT
# Poly [ADP-ribose] polymerase 1, sequence (P09874 whole entry, the tested form may be a part): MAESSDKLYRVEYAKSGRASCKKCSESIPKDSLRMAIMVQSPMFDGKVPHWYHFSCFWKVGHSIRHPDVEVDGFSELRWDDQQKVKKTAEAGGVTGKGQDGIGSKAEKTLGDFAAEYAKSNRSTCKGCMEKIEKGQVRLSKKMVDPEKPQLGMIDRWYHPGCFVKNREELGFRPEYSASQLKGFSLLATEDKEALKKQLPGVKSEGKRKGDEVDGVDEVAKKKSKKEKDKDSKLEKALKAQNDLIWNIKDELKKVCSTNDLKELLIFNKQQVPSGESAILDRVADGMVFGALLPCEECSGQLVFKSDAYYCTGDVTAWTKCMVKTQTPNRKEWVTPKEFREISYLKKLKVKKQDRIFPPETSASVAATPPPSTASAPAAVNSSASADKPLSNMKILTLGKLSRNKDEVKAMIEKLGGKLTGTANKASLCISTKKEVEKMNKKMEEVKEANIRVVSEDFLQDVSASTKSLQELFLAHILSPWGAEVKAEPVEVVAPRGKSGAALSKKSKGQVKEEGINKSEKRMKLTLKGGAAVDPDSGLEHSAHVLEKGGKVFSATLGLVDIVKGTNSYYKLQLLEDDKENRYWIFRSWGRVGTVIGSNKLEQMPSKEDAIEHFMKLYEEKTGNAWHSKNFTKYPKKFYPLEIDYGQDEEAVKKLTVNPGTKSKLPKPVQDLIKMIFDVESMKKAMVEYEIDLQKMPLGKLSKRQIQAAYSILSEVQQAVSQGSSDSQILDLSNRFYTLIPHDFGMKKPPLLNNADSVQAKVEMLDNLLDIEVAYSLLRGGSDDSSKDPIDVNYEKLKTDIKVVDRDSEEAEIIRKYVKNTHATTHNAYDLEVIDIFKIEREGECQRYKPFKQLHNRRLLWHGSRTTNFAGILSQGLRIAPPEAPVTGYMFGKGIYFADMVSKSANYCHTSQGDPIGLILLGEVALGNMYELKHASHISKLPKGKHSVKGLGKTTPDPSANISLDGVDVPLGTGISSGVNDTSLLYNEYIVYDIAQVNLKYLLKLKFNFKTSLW
IC50 [1] [nM],Structure (SMILES),IC50 [2] [nM]
6500,Cc1cccc2c(=O)[nH]c(CCC(=O)Nc3ccc(C(=O)Nc4cccc5cccnc45)cc3)nc12,5.1
,O=C(CCc1nc2ccccc2c(=O)[nH]1)Nc1ccc(C(=O)Nc2cccc3cccnc23)cc1,9.1
